# Organism: Rattus norvegicus
# Experiment: DrugMatrix - Regimen: Daily Repeat
# Type: toxicity, organism-based, Sprague-Dawley
# Parameters: regimen Daily Repeat, gender Male, age 6-8 weeks
# Details: in vivo, po, route oral GAVAGE, vehicle .5 % CMC; for ABSOLUTE BASOPHIL / ABSOLUTE EOSINOPHIL / ABSOLUTE LYMPHOCYTE / ABSOLUTE MONOCYTE / ABSOLUTE SEGMENTED NEUTROPHIL / BASOPHIL / EOSINOPHIL / ERYTHROCYTE COUNT / HEMATOCRIT / HEMOGLOBIN / LEUKOCYTE COUNT / LYMPHOCYTE / MEAN CORPUSCULAR HEMOGLOBIN / MEAN CORPUSCULAR HEMOGLOBIN CONCENTRATION / MEAN CORPUSCULAR VOLUME / MONOCYTE / NEUTROPHIL / NUCLEATED RED BLOOD CELLS / PLATELET COUNT: tissue Blood; for ALANINE AMINOTRANSFERASE / ALBUMIN / ALKALINE PHOSPHATASE / ASPARTATE AMINOTRANSFERASE / BLOOD UREA NITROGEN / CARBON DIOXIDE / CHLORIDE / CHOLESTEROL / CREATINE PHOSPHOKINASE / CREATININE / GLUCOSE / LACTATE DEHYDROGENASE / LIPASE / PHOSPHORUS / POTASSIUM / SODIUM / TOTAL BILIRUBIN / TOTAL PROTEIN / URIC ACID: tissue Plasma
# [1] = 200 mg/kg, 120 h, dose level Low, time 5 day
# [2] = 2500 mg/kg, 72 h, dose level High, time 3 day
# [3] = 2500 mg/kg, 120 h, dose level High, time 5 day
structure (smiles),measurement,setting,value
Cc1cnc(C(=O)NCCc2ccc(S(=O)(=O)NC(=O)NC3CCCCC3)cc2)cn1 [GLIPIZIDE],ABSOLUTE BASOPHIL,[1],0 CELLS/uL
same,ABSOLUTE EOSINOPHIL,[1],50.67 CELLS/uL
same,ABSOLUTE LYMPHOCYTE,[1],13488 CELLS/uL
same,ABSOLUTE MONOCYTE,[1],195 CELLS/uL
same,ABSOLUTE SEGMENTED NEUTROPHIL,[1],633 CELLS/uL
same,BASOPHIL,[1],0%
same,EOSINOPHIL,[1],0.33%
same,ERYTHROCYTE COUNT,[1],5.57 x10E6/uL
same,HEMATOCRIT,[1],34.23%
same,HEMOGLOBIN,[1],13.7 G/DL
same,LEUKOCYTE COUNT,[1],14.37 x10E3/uL
same,LYMPHOCYTE,[1],94%
same,MEAN CORPUSCULAR HEMOGLOBIN,[1],24.63 pg
same,MEAN CORPUSCULAR HEMOGLOBIN CONCENTRATION,[1],40 G/DL
same,MEAN CORPUSCULAR VOLUME,[1],61.53 fL
same,MONOCYTE,[1],1.33%
same,NEUTROPHIL,[1],4.33%
same,NUCLEATED RED BLOOD CELLS,[1],0 /100WBC
same,PLATELET COUNT,[1],1282.33 x10E3/uL
same,ALANINE AMINOTRANSFERASE,[1],62.33 u/L
same,ALBUMIN,[1],4.3 G/DL
same,ALKALINE PHOSPHATASE,[1],343.67 u/L
same,ASPARTATE AMINOTRANSFERASE,[1],82.67 u/L
same,BLOOD UREA NITROGEN,[1],14 mg/dL
same,CARBON DIOXIDE,[1],32.33 mmol/L
same,CHLORIDE,[1],103 MEQ/L
same,CHOLESTEROL,[1],74.67 mg/dL
same,CREATINE PHOSPHOKINASE,[1],208.33 u/L
same,CREATININE,[1],0.13 mg/dL
same,GLUCOSE,[1],118.67 mg/dL
same,LACTATE DEHYDROGENASE,[1],116.33 u/L
same,LIPASE,[1],10.67 u/L
same,PHOSPHORUS,[1],10.77 mg/dL
same,POTASSIUM,[1],6.11 MEQ/L
same,SODIUM,[1],144.93 MEQ/L
same,TOTAL BILIRUBIN,[1],0.2 mg/dL
same,TOTAL PROTEIN,[1],6.03 G/DL
same,URIC ACID,[1],0.9 mg/dL
same,ABSOLUTE BASOPHIL,[2],0 CELLS/uL
same,ABSOLUTE EOSINOPHIL,[2],83.33 CELLS/uL
same,ABSOLUTE LYMPHOCYTE,[2],11306.67 CELLS/uL
same,ABSOLUTE MONOCYTE,[2],81.67 CELLS/uL
same,ABSOLUTE SEGMENTED NEUTROPHIL,[2],861.67 CELLS/uL
same,BASOPHIL,[2],0%
same,EOSINOPHIL,[2],0.67%
same,ERYTHROCYTE COUNT,[2],5.69 x10E6/uL
same,HEMATOCRIT,[2],36.9%
same,HEMOGLOBIN,[2],14.23 G/DL
same,LEUKOCYTE COUNT,[2],12.33 x10E3/uL
same,LYMPHOCYTE,[2],91.67%
same,MEAN CORPUSCULAR HEMOGLOBIN,[2],25.07 pg
same,MEAN CORPUSCULAR HEMOGLOBIN CONCENTRATION,[2],38.57 G/DL
same,MEAN CORPUSCULAR VOLUME,[2],64.9 fL
same,MONOCYTE,[2],0.67%
same,NEUTROPHIL,[2],7%
same,NUCLEATED RED BLOOD CELLS,[2],0 /100WBC
same,PLATELET COUNT,[2],1346.67 x10E3/uL
same,ALANINE AMINOTRANSFERASE,[2],54 u/L
same,ALBUMIN,[2],4.17 G/DL
same,ALKALINE PHOSPHATASE,[2],318.33 u/L
same,ASPARTATE AMINOTRANSFERASE,[2],75.33 u/L
same,BLOOD UREA NITROGEN,[2],16 mg/dL
same,CARBON DIOXIDE,[2],31 mmol/L
same,CHLORIDE,[2],102.33 MEQ/L
same,CHOLESTEROL,[2],72.33 mg/dL
same,CREATINE PHOSPHOKINASE,[2],179.33 u/L
same,CREATININE,[2],0.15 mg/dL
same,GLUCOSE,[2],148.67 mg/dL
same,LACTATE DEHYDROGENASE,[2],104.33 u/L
same,LIPASE,[2],10 u/L
same,PHOSPHORUS,[2],11.9 mg/dL
same,POTASSIUM,[2],6.37 MEQ/L
same,SODIUM,[2],143.83 MEQ/L
same,TOTAL BILIRUBIN,[2],0.17 mg/dL
same,TOTAL PROTEIN,[2],5.63 G/DL
same,URIC ACID,[2],1.7 mg/dL
same,ABSOLUTE BASOPHIL,[3],0 CELLS/uL
same,ABSOLUTE EOSINOPHIL,[3],102.33 CELLS/uL
same,ABSOLUTE LYMPHOCYTE,[3],11867.33 CELLS/uL
same,ABSOLUTE MONOCYTE,[3],0 CELLS/uL
same,ABSOLUTE SEGMENTED NEUTROPHIL,[3],1397 CELLS/uL
same,BASOPHIL,[3],0%
same,EOSINOPHIL,[3],0.67%
same,ERYTHROCYTE COUNT,[3],5.55 x10E6/uL
same,HEMATOCRIT,[3],34.63%
same,HEMOGLOBIN,[3],14.1 G/DL
same,LEUKOCYTE COUNT,[3],13.37 x10E3/uL
same,LYMPHOCYTE,[3],88%
same,MEAN CORPUSCULAR HEMOGLOBIN,[3],25.4 pg
same,MEAN CORPUSCULAR HEMOGLOBIN CONCENTRATION,[3],40.73 G/DL
same,MEAN CORPUSCULAR VOLUME,[3],62.37 fL
same,MONOCYTE,[3],0%
same,NEUTROPHIL,[3],11.33%
same,NUCLEATED RED BLOOD CELLS,[3],0 /100WBC
same,PLATELET COUNT,[3],1273.67 x10E3/uL
same,ALANINE AMINOTRANSFERASE,[3],58 u/L
same,ALBUMIN,[3],4.37 G/DL
same,ALKALINE PHOSPHATASE,[3],329 u/L
same,ASPARTATE AMINOTRANSFERASE,[3],83.33 u/L
same,BLOOD UREA NITROGEN,[3],15 mg/dL
same,CARBON DIOXIDE,[3],30.67 mmol/L
same,CHLORIDE,[3],100.67 MEQ/L
same,CHOLESTEROL,[3],71 mg/dL
same,CREATINE PHOSPHOKINASE,[3],224.33 u/L
same,CREATININE,[3],0.19 mg/dL
same,GLUCOSE,[3],140.33 mg/dL
same,LACTATE DEHYDROGENASE,[3],117 u/L
same,LIPASE,[3],7.67 u/L
same,PHOSPHORUS,[3],11.13 mg/dL
same,POTASSIUM,[3],5.21 MEQ/L
same,SODIUM,[3],146.2 MEQ/L
same,TOTAL BILIRUBIN,[3],0.2 mg/dL
same,TOTAL PROTEIN,[3],6.17 G/DL
same,URIC ACID,[3],0.8 mg/dL
